Experimental data taken from publication PMC7311426, “An amphipathic peptide with antibiotic activity against multidrug-resistant Gram-negative bacteria” (Nature Communications, 2020).
Residues, ends and D or L forms follow the SMILES beside them.

How the values were obtained:
Experiment in all cases: microbe, parasite or virus in culture
P. aeruginosa = system: P. aeruginosa
In short: (§1)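 Broth microdilution in MHB, 2-fold 12-point series from 128 or 64 down to 0.06 or 0.03 μg mL^−1, 5 × 10^5 CFU mL^−1. Extra runs in CAMHB per CLSI and in MHB with 1% agarose; n ≥ 6.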

S. aureus = conditions: BMD; range over strains and media
In short: as §1

S. enterica Typhi = conditions: Typhi
In short: as §1

[1] = system: A. baumannii clinical isolates; conditions: clinical isolates
In short: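 MIC90 from CLSI broth microdilution (M07-A9) in two clinical-isolate panels. US panel (331 isolates, 2010-2012): AA139 diluted in 0.01% acetic acid/0.1% BSA. Worldwide panel (445 isolates, 2011-2013, four regions): CAMHB, with 0.002% Tween 80 added for AA139 and polymyxin B.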

CC(C)[C@@H]1NC(=O)[C@H](Cc2ccc(O)cc2)NC(=O)[C@H](Cc2c[nH]c3ccccc23)NC(=O)[C@@H](NC(=O)[C@H](Cc2ccccc2)NC(=O)CN)CSSC[C@@H](C(=O)N[C@@H](CC(N)=O)C(=O)O)NC(=O)[C@H](CCCNC(=N)N)NC(=O)[C@H](CCCNC(=N)N)NC(=O)[C@H](Cc2ccc(O)cc2)NC(=O)[C@@H]2CSSC[C@H](NC1=O)C(=O)N[C@@H](C)C(=O)N[C@@H](CCCNC(=N)N)C(=O)N[C@@H](CCCNC(=N)N)C(=O)N[C@@H](CC(N)=O)C(=O)NCC(=O)N[C@@H](C)C(=O)N[C@@H](CCCNC(=N)N)C(=O)N[C@@H](C(C)C)C(=O)N2 [AA139] (HELM PEPTIDE1{G.F.C.W.Y.V.C.A.R.R.N.G.A.R.V.C.Y.R.R.C.N}$PEPTIDE1,PEPTIDE1,3:R3-20:R3|PEPTIDE1,PEPTIDE1,7:R3-16:R3$$$V2.0)
≤ 2 µg/mL: MIC against colistin-resistant isolates (did not surpass) [1]
32 to 64 µg/mL: MIC against Staphylococcus aureus (S. aureus)
2.0 µg/mL: MIC90 (A. baumannii) [1]
1 µg/mL: MIC, broth microdilution (P. aeruginosa; P. aeruginosa ATCC 27853 spontaneous mutant, AA139 selection 8X, plate 1, colony 2, drug-free passage 1) | MIC, broth microdilution (P. aeruginosa; P. aeruginosa UNT 138-1 spontaneous mutant, AA139 selection 4X, plate 1, colony 5, drug-free passage 5) | MIC, broth microdilution (P. aeruginosa; P. aeruginosa UNT 138-1 spontaneous mutant, AA139 selection 4X, plate 1, colony 6, drug-free passage 5) | MIC, broth microdilution (P. aeruginosa; P. aeruginosa UNT 138-1 spontaneous mutant, AA139 selection 4X, plate 1, colony 7, drug-free passage 5) | MIC, broth microdilution (P. aeruginosa; P. aeruginosa UNT 138-1 spontaneous mutant, AA139 selection 4X, plate 2, colony 2, drug-free passage 5) | MIC, broth microdilution (P. aeruginosa; P. aeruginosa UNT 138-1 spontaneous mutant, AA139 selection 4X, plate 2, colony 4, drug-free passage 5) | MIC, broth microdilution (P. aeruginosa; P. aeruginosa UNT 138-1 spontaneous mutant, AA139 selection 4X, plate 2, colony 5, drug-free passage 5) | MIC, broth microdilution (P. aeruginosa; P. aeruginosa UNT 138-1 spontaneous mutant, AA139 selection 4X, plate 2, colony 6, drug-free passage 5) | MIC, broth microdilution (P. aeruginosa; P. aeruginosa UNT 138-1 spontaneous mutant, AA139 selection 4X, plate 2, colony 7, drug-free passage 5) | MIC, broth microdilution (P. aeruginosa; P. aeruginosa UNT 138-1 spontaneous mutant, AA139 selection 8X, plate 1, colony 1, drug-free passage 5) | MIC, broth microdilution (P. aeruginosa; P. aeruginosa UNT 138-1 spontaneous mutant, AA139 selection 8X, plate 1, colony 5, drug-free passage 1)
1, 1 µg/mL: MIC, broth microdilution (P. aeruginosa; P. aeruginosa ATCC 27853 spontaneous mutant, AA139 selection 8X, plate 1, colony 1, drug-free passage 1) | MIC, broth microdilution (P. aeruginosa; P. aeruginosa ATCC 27853 spontaneous mutant, AA139 selection 8X, plate 1, colony 1, drug-free passage 5) | MIC, broth microdilution (P. aeruginosa; P. aeruginosa ATCC 27853 spontaneous mutant, AA139 selection 8X, plate 1, colony 3, drug-free passage 1) | MIC, broth microdilution (P. aeruginosa; P. aeruginosa ATCC 27853 spontaneous mutant, AA139 selection 8X, plate 1, colony 3, drug-free passage 5) | MIC, broth microdilution (P. aeruginosa; P. aeruginosa ATCC 27853 spontaneous mutant, AA139 selection 8X, plate 1, colony 4, drug-free passage 1) | MIC, broth microdilution (P. aeruginosa; P. aeruginosa ATCC 27853 spontaneous mutant, AA139 selection 8X, plate 1, colony 4, drug-free passage 5) | MIC, broth microdilution (P. aeruginosa; P. aeruginosa ATCC 27853 spontaneous mutant, AA139 selection 8X, plate 1, colony 5, drug-free passage 1) | MIC, broth microdilution (P. aeruginosa; P. aeruginosa ATCC 27853 spontaneous mutant, AA139 selection 8X, plate 1, colony 5, drug-free passage 5) | MIC, broth microdilution (P. aeruginosa; P. aeruginosa UNT 138-1 spontaneous mutant, AA139 selection 4X, plate 1, colony 2, drug-free passage 1) | MIC, broth microdilution (P. aeruginosa; P. aeruginosa UNT 138-1 spontaneous mutant, AA139 selection 4X, plate 1, colony 2, drug-free passage 5) | MIC, broth microdilution (P. aeruginosa; P. aeruginosa UNT 138-1 spontaneous mutant, AA139 selection 4X, plate 1, colony 3, drug-free passage 1) | MIC, broth microdilution (P. aeruginosa; P. aeruginosa UNT 138-1 spontaneous mutant, AA139 selection 4X, plate 1, colony 3, drug-free passage 5) | MIC, broth microdilution (P. aeruginosa; P. aeruginosa UNT 138-1 spontaneous mutant, AA139 selection 4X, plate 1, colony 4, drug-free passage 1) | MIC, broth microdilution (P. aeruginosa; P. aeruginosa UNT 138-1 spontaneous mutant, AA139 selection 4X, plate 1, colony 4, drug-free passage 5) | MIC, broth microdilution (P. aeruginosa; P. aeruginosa UNT 138-1 spontaneous mutant, AA139 selection 8X, plate 1, colony 2, drug-free passage 1) | MIC, broth microdilution (P. aeruginosa; P. aeruginosa UNT 138-1 spontaneous mutant, AA139 selection 8X, plate 1, colony 2, drug-free passage 5) | MIC, broth microdilution (P. aeruginosa; P. aeruginosa UNT 138-1 spontaneous mutant, AA139 selection 8X, plate 1, colony 3, drug-free passage 1) | MIC, broth microdilution (P. aeruginosa; P. aeruginosa UNT 138-1 spontaneous mutant, AA139 selection 8X, plate 1, colony 3, drug-free passage 5) | MIC, broth microdilution (P. aeruginosa; P. aeruginosa UNT 138-1 spontaneous mutant, AA139 selection 8X, plate 2, colony 1, drug-free passage 1) | MIC, broth microdilution (P. aeruginosa; P. aeruginosa UNT 138-1 spontaneous mutant, AA139 selection 8X, plate 2, colony 1, drug-free passage 5)
0.5 µg/mL: BMD MIC (S. enterica Typhi)
2, 2 µg/mL: MIC, broth microdilution (P. aeruginosa; P. aeruginosa UNT 138-1 spontaneous mutant, AA139 selection 4X, plate 1, colony 1, drug-free passage 1) | MIC, broth microdilution (P. aeruginosa; P. aeruginosa UNT 138-1 spontaneous mutant, AA139 selection 4X, plate 1, colony 1, drug-free passage 5) | MIC, broth microdilution (P. aeruginosa; P. aeruginosa UNT 138-1 spontaneous mutant, AA139 selection 4X, plate 2, colony 1, drug-free passage 1) | MIC, broth microdilution (P. aeruginosa; P. aeruginosa UNT 138-1 spontaneous mutant, AA139 selection 4X, plate 2, colony 1, drug-free passage 5) | MIC, broth microdilution (P. aeruginosa; P. aeruginosa UNT 138-1 spontaneous mutant, AA139 selection 4X, plate 2, colony 3, drug-free passage 1) | MIC, broth microdilution (P. aeruginosa; P. aeruginosa UNT 138-1 spontaneous mutant, AA139 selection 4X, plate 2, colony 3, drug-free passage 5) | MIC, broth microdilution (P. aeruginosa; P. aeruginosa UNT 138-1 spontaneous mutant, AA139 selection 8X, plate 1, colony 4, drug-free passage 1) | MIC, broth microdilution (P. aeruginosa; P. aeruginosa UNT 138-1 spontaneous mutant, AA139 selection 8X, plate 1, colony 4, drug-free passage 5)
2 µg/mL: MIC, broth microdilution (P. aeruginosa; P. aeruginosa ATCC 27853 spontaneous mutant, AA139 selection 8X, plate 1, colony 2, drug-free passage 5) | BMD MIC (P. aeruginosa; P. aeruginosa FADDI-070, MDR, PmxR, MHB/CAMHB, mode of 6 replicates) | MIC, broth microdilution (P. aeruginosa; P. aeruginosa UNT 138-1 spontaneous mutant, AA139 selection 4X, plate 1, colony 5, drug-free passage 1) | MIC, broth microdilution (P. aeruginosa; P. aeruginosa UNT 138-1 spontaneous mutant, AA139 selection 4X, plate 1, colony 6, drug-free passage 1) | MIC, broth microdilution (P. aeruginosa; P. aeruginosa UNT 138-1 spontaneous mutant, AA139 selection 4X, plate 1, colony 7, drug-free passage 1) | MIC, broth microdilution (P. aeruginosa; P. aeruginosa UNT 138-1 spontaneous mutant, AA139 selection 4X, plate 2, colony 2, drug-free passage 1) | MIC, broth microdilution (P. aeruginosa; P. aeruginosa UNT 138-1 spontaneous mutant, AA139 selection 4X, plate 2, colony 4, drug-free passage 1) | MIC, broth microdilution (P. aeruginosa; P. aeruginosa UNT 138-1 spontaneous mutant, AA139 selection 4X, plate 2, colony 5, drug-free passage 1) | MIC, broth microdilution (P. aeruginosa; P. aeruginosa UNT 138-1 spontaneous mutant, AA139 selection 4X, plate 2, colony 6, drug-free passage 1) | MIC, broth microdilution (P. aeruginosa; P. aeruginosa UNT 138-1 spontaneous mutant, AA139 selection 4X, plate 2, colony 7, drug-free passage 1) | MIC, broth microdilution (P. aeruginosa; P. aeruginosa UNT 138-1 spontaneous mutant, AA139 selection 8X, plate 1, colony 1, drug-free passage 1) | MIC, broth microdilution (P. aeruginosa; P. aeruginosa UNT 138-1 spontaneous mutant, AA139 selection 8X, plate 1, colony 5, drug-free passage 5)
